Test results as given in patent US20130015204A1, “SINGLE-USE CONTAINERS AND USES THEREOF” (priority 2009, published 2013).
Entries after “also recorded” stand apart in the source; their conditions may differ. Read-outs that look alike come from different tables or passages of the source.

Experiments:
[1] = Heat stability studies: HPLC peak area change after heating, hot water or hot coffee; type: physicochemical; conditions: for Effect of dilution with hot water and coffee on vitamin concentration: dilution with hot water or hot coffee, 80° C. or 100° C.; for Effect of heating solutions on vitamin concentration: heating to either 80° C. or 100° C. for 15 minutes; for % Deviation: vs control; for Vitamin degradation, Water 80° C.: diluted with hot water 80° C.; for Vitamin degradation, Water 100° C.: diluted with hot water 100° C.; for Vitamin degradation, Heat 80° C.: solution heated 80° C.; for Vitamin degradation, Heat 100° C.: solution heated 100° C.
Description: Vitamins were divided into two groups, depending on their solubility. “High concentration” vitamins were sufficiently soluble to be detected by the. HPLC analysis after 1/250 dilution. “Low concentration” vitamins were not sufficiently soluble and could not be detected after 1/250 dilution and therefore a different procedure was adopted for these compounds as described below.
High concentration vitamin (B1, B3, B5, B6) solutions
Solutions were prepared immediately before use in duplicate, using four different methods, described below: a. Dilute 1 mL of each standard solution to 250 mL with Milli-Q water at room temperature (control sample) […]
b. […] Then take a 1 mL sample from each tube and dilute to 250 mL with Milli-Q water at room temperature. c. Dilute 1 mL of each solution to 250 mL with hot water (80° C. or 100° C.). Leave for 15 minutes, then take a sample and cool immediately to room temperature. d. Dilute 1 mL of each solution to 250 mL with hot coffee (80° C. or 100° C.). Leave for 15 minutes, then take a sample and cool immediately to room temperature.
Low Concentration Vitamin (B2, B7, B9, B12) Solutions
Standard solutions were freshly prepared with Milli-Q water as described above. The test solutions below were then immediately prepared in duplicate: a. Use undiluted (control sample)
HPLC conditions were as described above.
(§1) The percentage change in individual vitamin concentrations relative to the control sample was calculated as: 100×(Atest−Acontrol)/Acontrol, where Atest and Acontrol are peak area ratios (analyte/intemal standard) for the test and control solutions respectively.
All statistical analyses were performed with SPSS 16.

[2] = Long term storage stability studies: HPLC, solutions stored at RT and 4° C. for up to 4 months; conditions: for Long term storage stability of vitamin solution: stored at RT or 4° C., 4 month period; for Time to achieve significant falls at 4° C.: aqueous solution stored at 4° C.; for Time to achieve significant falls at RT: aqueous solution stored at RT
Description: Heat was applied by different methods, including placing the solution in a test tube in a bath of hot water (80° C. or 100° C.) for 15 minutes, or by mixing a concentrated solution with hot water or hot coffee (80° C. or 100° C. for both) for an equivalent time. Long term stability studies were carried out by storing individual vitamin solutions at room temperature and at 4° C. for up to 4 months and sampling these solutions at various intervals. Degradation was assessed by the change in peak area of the HPLC peak specific to each particular compound.
Vitamin solutions were prepared as for the Heat Stability Studies.
Replicate aliquots of these solutions were placed in four 15 mL Falcon tubes. Two of these tubes were stored on a shelf at room temperature (RT) in the laboratory and two in the cold room (4° C.).
At 0, 0.5, 1, 1.5, 2, 3.5, and 4 months, samples were taken from each vial for
HPLC analysis. The high concentration vitamin samples (vitamins BI, B3, B5, and B6) were diluted to 1:250 with Milli-Q water before injection and the low concentration vitamin samples (vitamins B2, B7, B9, and B12) were injected undiluted.
Samples from each of the duplicate solutions described above were injected onto the HPLC in duplicate. HPLC conditions were as described above.
Duplicate injections of the two samples were made and the mean of the four results was reported.
as §1
For the heat stability studies, statistical analysis was performed by Students t-test. For the storage stability studies, statistical analysis was performed by univariate ANOVA (General Linear Model). All statistical analyses were performed with SPSS 16.

[3] = water; cited from earlier work
[4] = high concentration vitamin solution, matrix coffee: diluted 1/250 with hot coffee 80° C., 15 minutes
[5] = high concentration vitamin solution, matrix coffee: diluted 1/250 with hot coffee 100° C., 15 minutes
[6] = high concentration vitamin solution, matrix heated: tube in hot water 80° C., 15 minutes
[7] = high concentration vitamin solution, matrix heated: tube in hot water 100° C., 15 minutes
[8] = high concentration vitamin solution, matrix hot water: diluted 1/250 with hot water 80° C., 15 minutes
[9] = high concentration vitamin solution, matrix hot water: diluted 1/250 with hot water 100° C., 15 minutes
[10] = greatest percentage change over the 4 month testing period, † non-significant, * significant, ‡ transient at 2 weeks
[11] = storage at RT and 4° C. for up to 4 months
[12] = low concentration vitamin solution, undiluted, heated to 80° C., 15 minutes
[13] = low concentration vitamin solution, undiluted, heated to 100° C., 15 minutes
[14] = up to 4 months, — = no significant fall

Row | Compound | Effect of dilution with hot water and coffee on vitamin concentration [1] | Effect of heating solutions on vitamin concentration [1] | % Deviation [1, 4] [%] | % Deviation [1, 5] [%] | % Deviation [1, 6] [%] | % Deviation [1, 7] [%] | % Deviation [1, 8] [%] | % Deviation [1, 9] [%] | Vitamin degradation, Storage 4° C. [2, 10] | Vitamin degradation, Storage RT [2, 10] | Comment (long term storage stability) [2, 11] | % Deviation [1, 12] [%] | % Deviation [1, 13] [%] | Time to achieve significant falls at 4° C. [2, 14] [weeks] | Long term storage stability of vitamin solution [2] | Aq. solubility [3] [µg/mL] | Vitamin degradation, Heat 80° C. ([1]; summary, 15 minutes) | Vitamin degradation, Heat 100° C. ([1]; summary, 15 minutes) | other results
1 | Cc1ncc(C[n+]2csc(CCO)c2C)c(N)n1 [Vitamin B1, Thiamine] | unaffected | not affected | 0.46 | 0.58 | 0.33 | 0.22 | −0.04 | −0.26 | † −2.8% | † −2.4% | Stable for 4 months | – | – | – | stable; also recorded: no statistically significant degradation | 500000 | – | – | –
2 | Cc1cc2nc3c(=O)[nH]c(=O)nc-3n(C[C@H](O)[C@H](O)[C@H](O)CO)c2cc1C [Vitamin B2, riboflavin] | – | not significantly affected | – | – | – | – | – | – | −33.6% * | −24.7% * | – | 1.5 | 2.85 | 2 | varying levels of degradation; also recorded: little further degradation; also recorded: Significant degradation | – | – | – | Time to achieve significant falls at RT [2, 14]: 2 weeks; Degradation after 2 weeks at 4° C. ([2]; storage at 4° C.): 33.6%; Comment: Falls sustained to ([2]; storage at RT and 4° C.): 4 months; Degradation after 2 weeks at RT ([2]; storage at RT): 24.7%
3 | NC(=O)c1cccnc1 [Vitamin B3, niacinamide] | Statistically significant reductions | not affected | −3.72 | −3.62 | −0.24 | −0.86 | 0.33 | 0.4 | † −1.1% | † −1.8% | Stable for 4 months | – | – | – | stable; also recorded: no statistically significant degradation | – | †† (non-significant reductions in vitamin concentrations of <2% in response to heat treatment) | †† (non-significant reductions in vitamin concentrations of <2% in response to heat treatment) | Vitamin degradation, Water 80° C. ([1]; summary, 15 minutes): †† (non-significant reductions in vitamin concentrations of <2% in response to heat treatment); Vitamin degradation, Water 100° C. ([1]; summary, 15 minutes): †† (non-significant reductions in vitamin concentrations of <2% in response to heat treatment)
4 | O=C(O)CCCC[C@@H]1SC[C@@H]2NC(=O)N[C@@H]21 [Vitamin B7, biotin] | – | not significantly affected | – | – | – | – | – | – | −27.4% ‡ | −15.9% ‡ | Stable for 4 months | −0.47 | −1.89 | – | varying levels of degradation; also recorded: no statistically significant degradation; also recorded: transient reductions | 220 | †† (non-significant reductions in vitamin concentrations of <2% in response to heat treatment) | †† (non-significant reductions in vitamin concentrations of <2% in response to heat treatment) | –
5 | Nc1nc2ncc(CNc3ccc(C(=O)N[C@@H](CCC(=O)O)C(=O)O)cc3)nc2c(=O)[nH]1 [Vitamin B9, folic acid] | – | Statistically significant reductions | – | – | – | – | – | – | −13.7% * | −100.0% * | At RT, undetectable | −1.92 | −2.26 | 2 | varying levels of degradation; also recorded: Significant degradation | 1.6 | – | – | Time to achieve significant falls at RT [2, 14]: 2 weeks; Comment: At 4° C., significant change only at ([2]; storage at 4° C.): 2 weeks.; Further fall in levels at 1 month ([2]; storage at 4° C., 1 month, beyond the fall at 2 weeks): 5.7%; Degradation after 2 weeks at 4° C. ([2]; storage at 4° C.): 8.0%; Maximum degradation on storage at 4° C. ([2]; storage at 4° C., 4 months): 13.7%; Degradation after 2 weeks at RT ([2]; storage at RT): 10.0%; Level on storage at RT after the 2 week sample ([2]; storage at RT, sampling times from 1 month to 4 months): undetectable; also recorded: complete elimination

The next lines start with results.

Row | Effect of dilution with hot water and coffee on vitamin concentration [1] | Effect of heating solutions on vitamin concentration [1] | % Deviation [1, 4] [%] | % Deviation [1, 5] [%] | % Deviation [1, 6] [%] | % Deviation [1, 7] [%] | % Deviation [1, 8] [%] | % Deviation [1, 9] [%] | Vitamin degradation, Storage 4° C. [2, 10] | Vitamin degradation, Storage RT [2, 10] | Comment (long term storage stability) [2, 11] | % Deviation [1, 12] [%] | % Deviation [1, 13] [%] | Time to achieve significant falls at 4° C. [2, 14] [weeks] | Compound | Long term storage stability of vitamin solution [2] | Aq. solubility [3] [µg/mL] | Vitamin degradation, Heat 80° C. ([1]; summary, 15 minutes) | Vitamin degradation, Heat 100° C. ([1]; summary, 15 minutes) | other results
6 | unaffected | not affected | −0.63 | −1.47 | 0.05 | −0.28 | 1.39 | 1.64 | – | – | – | – | – | – | Cc1ncc(CO)c(CO)c1O.Cl [Vitamin B6, pyroxidine hydrochloride] | – | – | – | – | Comment (long term storage stability) [2]: Stable for 4 months; Vitamin degradation, Storage 4° C. [2]: † −2.5%; Vitamin degradation, Storage RT [2]: † −1.5%
7 | unaffected | Statistically significant reductions | 1.78 | 0.31 | −2.78 | −2.27 | −0.77 | −1.15 | −3.9% * | −3.3% * | – | – | – | 2 | calcium (+)-pantothenate [Vitamin B5] | varying levels of degradation; also recorded: significant degradation | – | – | – | Vitamin degradation, Coffee 80° C. ([1]; summary, diluted with hot coffee 80° C., 15 minutes): †† (non-significant reductions in vitamin concentrations of <2% in response to heat treatment); Vitamin degradation, Coffee 100° C. ([1]; summary, diluted with hot coffee 100° C., 15 minutes): †† (non-significant reductions in vitamin concentrations of <2% in response to heat treatment); Vitamin degradation, Water 80° C. ([1]; summary, 15 minutes): †† (non-significant reductions in vitamin concentrations of <2% in response to heat treatment); Vitamin degradation, Water 100° C. ([1]; summary, 15 minutes): †† (non-significant reductions in vitamin concentrations of <2% in response to heat treatment); Time to achieve significant falls at RT ([2]; up to 4 months): 1.5 months; Comment: Falls sustained to ([2]; storage at RT and 4° C.): 4 months; Comment: size of falls at all times ([2]; storage at RT and 4° C., up to 4 months): < 5%; Degradation at any time for either temperature ([2]; storage at RT or 4° C., entire 4 month test period): less than 4%
8 | – | not significantly affected | – | – | – | – | – | – | † −1.4% | † −1.2% | – | −0.14 | −0.18 | – | cyanocobalamin [Vitamin B12] | stable; also recorded: no statistically significant degradation | 12.5 | †† (non-significant reductions in vitamin concentrations of <2% in response to heat treatment) | †† (non-significant reductions in vitamin concentrations of <2% in response to heat treatment) | –
